Source: ChEMBL document CHEMBL1201862, “PubChem BioAssay data set” (2004)
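Assay format: 96-well plates, 48-hour exposure. Abbreviation: GI50, concentration required for 50% inhibition of growth.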 The source made the active and inactive calls. Cut-off read from the data, not from the text of the source: active = GI50 up to about 1.1 µM and inactive = higher.

Assays:
Test in all cases: growth of human tumour cells (NCI), 48 h
COLO 205 = tested on: COLO 205
NCI-H522 = tested on: NCI-H522
MDA-MB-435 = tested on: MDA-MB-435
SNB-19 = tested on: SNB-19
OVCAR-3 = tested on: OVCAR-3
K562 = tested on: K562
Hs-578T = tested on: Hs-578T
HT-29 = tested on: HT-29
DU-145 = tested on: DU-145
PC-3 = tested on: PC-3
M14 = tested on: M14
NCI-H460 = tested on: NCI-H460
786-0 = tested on: 786-0
BT-549 = tested on: BT-549
Malme-3M = tested on: Malme-3M
OVCAR-4 = tested on: OVCAR-4
ACHN = tested on: ACHN
MOLT-4 = tested on: MOLT-4
LOX IMVI = tested on: LOX IMVI
SK-MEL-28 = tested on: SK-MEL-28
MDA-N = tested on: MDA-N
NCI-H226 = tested on: NCI-H226
UACC-257 = tested on: UACC-257
SF-268 = tested on: SF-268
SK-MEL-5 = tested on: SK-MEL-5
NCI/ADR-RES = tested on: NCI/ADR-RES
MDA-MB-231 = tested on: MDA-MB-231
SK-MEL-2 = tested on: SK-MEL-2
SW-620 = tested on: SW-620
UACC-62 = tested on: UACC-62
CAKI-1 = tested on: CAKI-1
KM12 = tested on: KM12
A498 = tested on: A498
IGROV-1 = tested on: IGROV-1
A549 = tested on: A549
HCT-116 = tested on: HCT-116
UO-31 = tested on: UO-31
OVCAR-8 = tested on: OVCAR-8
SF-295 = tested on: SF-295
HOP-62 = tested on: HOP-62
U-251 = tested on: U-251
SR = tested on: SR
HCT-15 = tested on: HCT-15
HOP-92 = tested on: HOP-92
EKVX = tested on: EKVX
SN12C = tested on: SN12C
MCF7 = tested on: MCF7
OVCAR-5 = tested on: OVCAR-5
T47D = tested on: T47D
RPMI-8226 = tested on: RPMI-8226
TK-10 = tested on: TK-10
CCRF-CEM = tested on: CCRF-CEM
NCI-H23 = tested on: NCI-H23
SK-OV-3 = tested on: SK-OV-3
SNB-75 = tested on: SNB-75
HCC 2998 = tested on: HCC 2998
SF-539 = tested on: SF-539
HL-60 = tested on: HL-60
RXF 393 = tested on: RXF 393

With Nc1nc(O)c2c(n1)NCN(c1ccc(S(N)(=O)=O)cc1)C2 the GI50 (COLO 205) was > 100 µM (inactive), the GI50 (NCI-H522) was > 100 µM (inactive) and the GI50 (MDA-MB-435) was > 100 µM (inactive). For the same compound, the GI50 (SNB-19) was > 100 µM (inactive), the GI50 (OVCAR-3) was > 100 µM (inactive) and the GI50 (K562) was > 100 µM (inactive). The GI50 (Hs-578T) was > 100 µM (inactive), the GI50 (HT-29) was > 100 µM (inactive) and the GI50 (DU-145) was > 100 µM (inactive). For the same compound, the GI50 (PC-3) was > 100 µM (inactive), the GI50 (M14) was > 100 µM (inactive) and the GI50 (NCI-H460) was > 100 µM (inactive). For the same compound, the GI50 (786-0) was > 100 µM (inactive), the GI50 (BT-549) was > 100 µM (inactive) and the GI50 (Malme-3M) was > 100 µM (inactive). The GI50 (OVCAR-4) was > 100 µM (inactive), the GI50 (ACHN) was > 100 µM (inactive) and the GI50 (MOLT-4) was > 100 µM (inactive). For the same compound, the GI50 (LOX IMVI) was > 100 µM (inactive), the GI50 (SK-MEL-28) was > 100 µM (inactive) and the GI50 (MDA-N) was > 100 µM (inactive). The GI50 (NCI-H226) was > 100 µM (inactive), the GI50 (UACC-257) was > 100 µM (inactive) and the GI50 (SF-268) was > 100 µM (inactive). The GI50 (SK-MEL-5) was > 100 µM (inactive), the GI50 (NCI/ADR-RES) was > 100 µM (inactive) and the GI50 (MDA-MB-231) was > 100 µM (inactive). For the same compound, the GI50 (SK-MEL-2) was > 100 µM (inactive), the GI50 (SW-620) was > 100 µM (inactive) and the GI50 (UACC-62) was > 100 µM (inactive). The GI50 (CAKI-1) was > 100 µM (inactive), the GI50 (KM12) was > 100 µM (inactive) and the GI50 (A498) was > 100 µM (inactive). The GI50 (IGROV-1) was > 100 µM (inactive), the GI50 (A549) was > 100 µM (inactive) and the GI50 (HCT-116) was > 100 µM (inactive). The GI50 (UO-31) was > 100 µM (inactive), the GI50 (OVCAR-8) was > 100 µM (inactive) and the GI50 (SF-295) was 85.9 µM (inactive). The GI50 (HOP-62) was 71 µM (inactive), the GI50 (U-251) was > 100 µM (inactive) and the GI50 (SR) was > 100 µM (inactive). For the same compound, the GI50 (HCT-15) was greater than 100 µM, the GI50 (HOP-92) was > 100 µM (inactive) and the GI50 (EKVX) was > 100 µM (inactive). For the same compound, the GI50 (SN12C) was > 100 µM (inactive), the GI50 (MCF7) was > 100 µM (inactive) and the GI50 (OVCAR-5) was > 100 µM (inactive). The GI50 (T47D) was > 100 µM (inactive), the GI50 (RPMI-8226) was > 100 µM (inactive) and the GI50 (TK-10) was > 100 µM (inactive).
COC(=O)C(C)(C)NC(=O)C(Cc1ccccc1)Nc1ncnc2c1ncn2-c1ccc(OC)cc1 (stereo unspecified) was tested, and the GI50 (COLO 205) was 17.7 µM (inactive), the GI50 (NCI-H522) was 13.1 µM (inactive) and the GI50 (MDA-MB-435) was 14.9 µM (inactive). The GI50 (SNB-19) was > 100 µM (inactive), the GI50 (OVCAR-3) was 38.8 µM (inactive) and the GI50 (K562) was > 100 µM (inactive). For the same compound, the GI50 (Hs-578T) was 27.8 µM (inactive), the GI50 (HT-29) was 19.9 µM (inactive) and the GI50 (DU-145) was 47.3 µM (inactive). For the same compound, the GI50 (PC-3) was 29.5 µM (inactive), the GI50 (M14) was 42.7 µM (inactive) and the GI50 (NCI-H460) was 22.9 µM (inactive). The GI50 (786-0) was 28.8 µM (inactive), the GI50 (BT-549) was 40.9 µM (inactive) and the GI50 (OVCAR-4) was 12.7 µM (inactive). For the same compound, the GI50 (ACHN) was > 100 µM (inactive), the GI50 (MOLT-4) was > 10 µM (inactive) and the GI50 (LOX IMVI) was 34.2 µM (inactive). The GI50 (SK-MEL-28) was 33.6 µM (inactive), the GI50 (MDA-N) was 20.3 µM (inactive) and the GI50 (NCI-H226) was 32.1 µM (inactive). For the same compound, the GI50 (UACC-257) was 39.9 µM (inactive), the GI50 (SF-268) was 31 µM (inactive) and the GI50 (SK-MEL-5) was 24.8 µM (inactive). The GI50 (NCI/ADR-RES) was 31.3 µM (inactive), the GI50 (MDA-MB-231) was 28.6 µM (inactive) and the GI50 (SK-MEL-2) was 37.5 µM (inactive). The GI50 (SW-620) was 19.9 µM (inactive), the GI50 (CCRF-CEM) was 13.5 µM (inactive) and the GI50 (UACC-62) was 39.1 µM (inactive). The GI50 (CAKI-1) was 32.7 µM (inactive), the GI50 (KM12) was 25.6 µM (inactive) and the GI50 (A498) was 20.1 µM (inactive). The GI50 (IGROV-1) was 15 µM (inactive), the GI50 (A549) was 22.5 µM (inactive) and the GI50 (HCT-116) was 28.2 µM (inactive). The GI50 (NCI-H23) was 56.8 µM (inactive), the GI50 (UO-31) was 96.4 µM (inactive) and the GI50 (OVCAR-8) was 48.2 µM (inactive). For the same compound, the GI50 (SF-295) was 73.1 µM (inactive), the GI50 (HOP-62) was 35.2 µM (inactive) and the GI50 (U-251) was 26.5 µM (inactive). For the same compound, the GI50 (SR) was > 10 µM (inactive), the GI50 (HCT-15) was 34.8 µM and the GI50 (HOP-92) was 22.8 µM (inactive). For the same compound, the GI50 (EKVX) was 10.8 µM (inactive), the GI50 (SN12C) was 85.1 µM (inactive) and the GI50 (SK-OV-3) was 46.8 µM (inactive). For the same compound, the GI50 (SNB-75) was 24.1 µM (inactive), the GI50 (HCC 2998) was 50.7 µM (inactive) and the GI50 (MCF7) was 23 µM (inactive). The GI50 (OVCAR-5) was 42.2 µM (inactive), the GI50 (T47D) was 17.5 µM (inactive) and the GI50 (RPMI-8226) was 72.9 µM (inactive). The GI50 (TK-10) was > 100 µM (inactive).
With CN(CC(=O)O)c1ccc(/C=C/c2ccnc3ccccc23)cc1 the GI50 (COLO 205) was 16 µM (inactive), the GI50 (NCI-H522) was 5.47 µM (inactive) and the GI50 (SF-539) was 27.9 µM (inactive). The GI50 (MDA-MB-435) was 14.1 µM (inactive), the GI50 (SNB-19) was 30.1 µM (inactive) and the GI50 (OVCAR-3) was 27.9 µM (inactive). For the same compound, the GI50 (K562) was 23.7 µM (inactive), the GI50 (Hs-578T) was 25.4 µM (inactive) and the GI50 (HT-29) was 23 µM (inactive). For the same compound, the GI50 (DU-145) was 33.6 µM (inactive), the GI50 (PC-3) was 27.4 µM (inactive) and the GI50 (M14) was 22.2 µM (inactive). The GI50 (NCI-H460) was 21.4 µM (inactive), the GI50 (786-0) was 28.1 µM (inactive) and the GI50 (BT-549) was 16.3 µM (inactive). For the same compound, the GI50 (ACHN) was 34.4 µM (inactive), the GI50 (LOX IMVI) was 22.3 µM (inactive) and the GI50 (SK-MEL-28) was 40 µM (inactive). The GI50 (MDA-N) was 12.5 µM (inactive), the GI50 (UACC-257) was 25.4 µM (inactive) and the GI50 (SF-268) was 19.1 µM (inactive). The GI50 (HL-60) was 11.4 µM (inactive), the GI50 (SK-MEL-5) was 16 µM (inactive) and the GI50 (NCI/ADR-RES) was 29.2 µM (inactive). For the same compound, the GI50 (MDA-MB-231) was 27 µM (inactive), the GI50 (SK-MEL-2) was 18.8 µM (inactive) and the GI50 (SW-620) was 29.4 µM (inactive). For the same compound, the GI50 (CCRF-CEM) was 13.8 µM (inactive), the GI50 (UACC-62) was 19.6 µM (inactive) and the GI50 (CAKI-1) was 18.5 µM (inactive). The GI50 (KM12) was 13.2 µM (inactive), the GI50 (A498) was 17.1 µM (inactive) and the GI50 (IGROV-1) was 13.9 µM (inactive). For the same compound, the GI50 (A549) was 17.5 µM (inactive), the GI50 (HCT-116) was 23.8 µM (inactive) and the GI50 (NCI-H23) was 33.3 µM (inactive). For the same compound, the GI50 (UO-31) was 15.7 µM (inactive), the GI50 (OVCAR-8) was 27.7 µM (inactive) and the GI50 (SF-295) was 18.1 µM (inactive). The GI50 (HOP-62) was 31.3 µM (inactive), the GI50 (U-251) was 22.8 µM (inactive) and the GI50 (SR) was 6.93 µM (inactive). For the same compound, the GI50 (HCT-15) was 31.9 µM, the GI50 (HOP-92) was 22.9 µM (inactive) and the GI50 (EKVX) was 4.47 µM (inactive). The GI50 (SN12C) was 25.5 µM (inactive), the GI50 (SK-OV-3) was 28.9 µM (inactive) and the GI50 (SNB-75) was 24.8 µM (inactive). For the same compound, the GI50 (HCC 2998) was 25.4 µM (inactive), the GI50 (MCF7) was 5.02 µM (inactive) and the GI50 (OVCAR-5) was 29.2 µM (inactive). For the same compound, the GI50 (T47D) was 20.2 µM (inactive), the GI50 (RPMI-8226) was 13.3 µM (inactive) and the GI50 (RXF 393) was 14.8 µM (inactive). The GI50 (TK-10) was 19.7 µM (inactive).
